Common to all, as to format: physicochemical
Data set [1] can be described thus: Water added dropwise to 1:1 hydrophobic amine/cosolvent amine blend until turbidity (visible light scattering). How it is done: To illustrate the efficiency of the present invention to solubilize various hydrophobic amines, one part by weight of various commercially available hydrophobic amines is blended with one part by weight of a cosolvent amine. Water is then added dropwise with vigorous stirring to the blend of one part hydrophobic amine and one part cosolvent amine. The parts of water added is monitored by the appearance of turbidity as measured by visible light scattering. […] Cosolvents amines A-D are those of the present invention. In order to assess the relative efficiency of the cosolvent amines of the present invention, A-D; conventional cosolvent amines, E-I and the omission of a cosolvent, J are also evaluated.

Data set [2] can be described thus: Aqueous solution of polyamidoamine with cosolvent amine, appearance and stability (Example 1). The note with it: 10 parts polyamidoamine, 10 parts cosolvent, 150 parts room temperature water. How it is done:
10 parts of a polyamidoamine (Air Products 506 amidoamine) is added to a reactor equipped with a mechanical agitator.

For a further data set, the target named is T1, bacteriorhodopsin (Halobacterium salinarum, UniProt P02945).
T1 construct: A lyophilized powder of bacteriorhodopsin is obtained according to D. Oesterhett Mtds; Enzy 31, 1974, 667; made in house; host or cells: Isolated from the natural producer (Halobacterium) by the cited literature method
T1 sequence (P02945 14-262): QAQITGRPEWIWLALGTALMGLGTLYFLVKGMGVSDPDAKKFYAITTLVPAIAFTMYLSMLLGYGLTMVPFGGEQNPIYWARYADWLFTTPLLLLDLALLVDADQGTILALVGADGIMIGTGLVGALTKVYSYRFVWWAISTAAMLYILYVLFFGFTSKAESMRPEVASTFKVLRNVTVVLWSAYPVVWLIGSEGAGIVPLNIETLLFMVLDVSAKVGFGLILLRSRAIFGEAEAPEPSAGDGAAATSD
Put plainly: Dispersion of bacteriorhodopsin in aqueous cosolvent by small angle x-ray scattering (Example 3). Conditions: 0.1 gram bacteriorhodopsin, 0.1 grams cosolvent, 1.1 grams water. The source says: A lyophilized powder of bacteriorhodopsin is obtained according to D. Oesterhett Mtds. Enzy 31, 1974, 667. 0.1 gram of bacteriorhodopsin is mixed with 0.1 grams of 1,2 diaminocycylohexane cosolvent and 1.1 grams of water added.

[3] abbreviates: 1 part Air Products 506 Amidoamine + 1 part cosolvent amine by weight.
The mark [4] stands for this setting: 1 part Air Products 2460 Polyamide + 1 part cosolvent amine by weight.
[5] abbreviates: 1 part Cardolite NC-540 Phenalkamine + 1 part cosolvent amine by weight.

The record followed here is patent US6685851B2, “Derivatives of cycloaliphatic diamines as cosolvents for aqueous hydrophobic amines” (PRC-DeSoto International, Inc., priority 1999, dated 2004).

Structures are written as SMILES. Where only a bound is given, the exact number is not on record here.

For `CC1(C)CC(N)CC(C)(CN)C1` (stereo not drawn) [Cosolvent A, Isophorone diamine], the entries for the “Parts of water added to 2 parts of amine blend yielding a clear solution” value (“Parts of water added” for short) in data set [1] (setting [3]), in data set [1] (setting [4]) and in data set [1] (setting [5]) were above 28 parts, above 22 parts and above 30 parts, respectively.

Turning to `NCC1CCCC(CN)C1` (stereo not drawn) [Cosolvent B, 1,3-Bis (aminomethyl) cyclohexane], the “Parts of water added” value is listed as above 19 parts in data set [1] (setting [3]), above 10 parts in data set [1] (setting [4]) and above 18 parts in data set [1] (setting [5]). For the same compound, the “Appearance of aqueous solution” value in data set [2] was “uniform, clear solution is formed”. In addition, the “Stability of the solution” value in data set [2] is given as “stable for greater than three months”.

Regarding `NC1CCCCC1N` (stereo not drawn) [Cosolvent C, 1,2-Diamino cyclohexane], on bacteriorhodopsin, the “Dispersion of bacteriorhodopsin in the aqueous cosolvent” value is reported as “uniformly dispersed”.

Consider `NC1CCCC1N` (stereo not drawn) [Cosolvent D, 1,2 Diaminocyclopentane], for which the “Parts of water added” value in data set [1] (setting [3]) is listed as below 5 parts; in data set [1] (setting [4]), below 5 parts; in data set [1] (setting [5]) it was below 3.5 parts.

Consider `CC(CN)CCCN` (stereo not drawn) [Cosolvent E], for which the “Parts of water added” value in data set [1] (setting [3]) is listed as below 6 parts; in data set [1] (setting [4]), 3.5 parts; in data set [1] (setting [5]), below 3.9 parts.

Regarding `NCCCN1CCN(CCCN)CC1` [Cosolvent F, 1,4-Bis (3-aminopropyl) piperazine, reference compound], the “Parts of water added” value is reported as below 4 parts in data set [1] (setting [3]), below 2 parts in data set [1] (setting [4]) and “<.5 parts” in data set [1] (setting [5]).

Regarding `NCCOCCOCCN` [Cosolvent G], the “Parts of water added” value in data set [1] (setting [3]) is below 2 parts; in data set [1] (setting [4]), below 2 parts; in data set [1] (setting [5]) it was “<.5 parts”.

As for `CCCCC(N)CN` (stereo not drawn) [Cosolvent H, 1,2-Hexanediamine, reference compound], the “Parts of water added” value in data set [1] (setting [3]) is given as below 7 parts; in data set [1] (setting [4]), below 3.6 parts; in data set [1] (setting [5]), below 3 parts.

Turning to `NCc1cccc(CN)c1` [Cosolvent I, m-Xylylenediamine, reference compound], the figures for the “Parts of water added” value in data set [1] (setting [3]), in data set [1] (setting [4]) and in data set [1] (setting [5]) were below 5 parts, below 3.75 parts and “<.5 parts”, respectively.
